Source: US20220117938A1, “COMBINATON THERAPY WITH A DON PRODRUG AND AN IMMUNE CHECKPOINT INHIBITOR” (DRACEN PHARMACEUTICALS, INC., priority 2019, published 2022)

System: CT26.WT tumors
Assay: Anti-tumor efficacy of Compound 1 and Compound 1 in combination with anti-PD-1 in the CT26.WT syngeneic model (Example 10)
Format: in vivo, mice
Method: Female BALB/c mice were inoculated subcutaneously in the right flank with CT26.WT cells for tumor development. Six days after tumor inoculation, mice with tumor sizes ranging from 30-81 mm^3 (average tumor size 55 mm^3) were selected and assigned into 10 groups using stratified randomization with 8 mice per group based upon their tumor volumes. The treatments were started from the day of randomization (defined as D0), Group 1 was treated with Vehicle control, 10 mpk, SC, qd 5 days on (Mon-Fri)×4 cycles; Group 2 was treated with Anti-PD-1, 10 mpk, IP, q4d×6; Group 3 was treated with Compound 1, 1.4 mpk, SC, qd 5 days on (Mon-Fri)×4 cycles; Group 4 was treated with Compound 1+anti-PD-1, 1.4 mpk+10 mpk, SC, qd 5 days on (Mon-Fri)×4 cycles+IP, q4d×6; Group 5 was treated with Compound 1, 10.5 mpk, IV, biw (Mon, Thu)×4 cycles; Group 6 was treated with Compound 1+anti-PD-1, 10.5 mpk+10 mpk, IV, biw (Mon, Thu)×4 cycles+IP, q4d×6; Group 7 was treated with Compound 1, 7 mpk IV, tiw (Mon, Wed, Fri)×4 cycles; Group 8 was treated with Compound 1+anti-PD-1, 7 mpk+10 mpk, IV, tiw (Mon, Wed, Fri)×4 cycles+IP, q4d×6; Group 9 was treated with Compound 1, 7 mpk IV, tiw (Mon, Tue, Wed)×4 cycles; and Group 10 was treated with Compound 1+anti-PD-1, 7 mpk+10 mpk, IV, tiw (Mon, Tue, Wed)×4 cycles+IP, q4d×6. The tumor sizes were measured three times per week during the treatment. Survival was monitored with tumor volume exceeding 2000 mm^3 as endpoint. The entire study was terminated on D56 after start of the treatment. All treatments were well-tolerated without any adverse effects or significant body weight loss.

[1] = Group 3, 1.4 mpk SC qd Mon-Fri x4 cycles
[2] = Group 3, 1.4 mpk SC qd Mon-Fri x4 cycles, day 14
[3] = Group 5, 10.5 mpk IV biw x4 cycles
[4] = Group 5, 10.5 mpk IV biw x4 cycles, day 14
[5] = Group 7, 7 mpk IV tiw (Mon,Wed,Fri) x4 cycles
[6] = Group 7, 7 mpk IV tiw (Mon,Wed,Fri) x4 cycles, day 14
[7] = Group 9, 7 mpk IV tiw (Mon,Tue,Wed) x4 cycles
[8] = Group 9, 7 mpk IV tiw (Mon,Tue,Wed) x4 cycles, day 14

CC(=O)N[C@@H](Cc1c[nH]c2ccccc12)C(=O)N[C@@H](CCC(=O)C=[N+]=[N-])C(=O)OC(C)C [Compound 1, Isopropyl (S)-2-((S)-2-acetamido-3-(1H-indol-3-yl)propanamido)-6-diazo-5-oxohexanoate] was tested, and the ILS [1] was 81.0%, the MST [1] was 38 days and the “RTV at day 14” value [1] was 3.07 ± 0.38. For the same compound, the “Tumor Size at day 14” value [1] was 172 ± 29 mm^3, the Tumor volume (Group 3, 1.4 mpk SC qd Mon-Fri x4 cycles, day 0) was 56 ± 5 mm^3 and the Tumor volume (Group 3, 1.4 mpk SC qd Mon-Fri x4 cycles, day 2) was 59 ± 5 mm^3. For the same compound, the Tumor volume (Group 3, 1.4 mpk SC qd Mon-Fri x4 cycles, day 11) was 103 ± 13 mm^3, the T/C [2] was 17.06% and the TGI [2] was 88.16%. The Tumor volume [2] was 172 ± 29 mm^3, the Tumor volume (Group 3, 1.4 mpk SC qd Mon-Fri x4 cycles, day 16) was 163 ± 20 mm^3 and the Tumor volume (Group 3, 1.4 mpk SC qd Mon-Fri x4 cycles, day 18) was 191 ± 26 mm^3. It also gave a Tumor volume (Group 3, 1.4 mpk SC qd Mon-Fri x4 cycles, day 21) of 258 ± 25 mm^3, a Tumor volume (Group 3, 1.4 mpk SC qd Mon-Fri x4 cycles, day 23) of 276 ± 36 mm^3 and a Tumor volume (Group 3, 1.4 mpk SC qd Mon-Fri x4 cycles, day 25) of 278 ± 42 mm^3. The Tumor volume (Group 3, 1.4 mpk SC qd Mon-Fri x4 cycles, day 28) was 466 ± 62 mm^3, the Tumor volume (Group 3, 1.4 mpk SC qd Mon-Fri x4 cycles, day 30) was 682 ± 103 mm^3 and the Tumor volume (Group 3, 1.4 mpk SC qd Mon-Fri x4 cycles, day 32) was 1012 ± 189 mm^3. For the same compound, the Tumor volume (Group 3, 1.4 mpk SC qd Mon-Fri x4 cycles, day 35) was 1417 ± 260 mm^3, the ILS [3] was 76.2% and the MST [3] was 37 days. The “RTV at day 14” value [3] was 3.21 ± 1.03, the “Tumor Size at day 14” value [3] was 170 ± 51 mm^3 and the Tumor volume (Group 5, 10.5 mpk IV biw x4 cycles, day 0) was 56 ± 5 mm^3. It also gave a Tumor volume (Group 5, 10.5 mpk IV biw x4 cycles, day 2) of 52 ± 5 mm^3, a Tumor volume (Group 5, 10.5 mpk IV biw x4 cycles, day 11) of 113 ± 24 mm^3 and a T/C [4] of 17.83%. The TGI [4] was 88.39%, the Tumor volume [4] was 170 ± 51 mm^3 and the Tumor volume (Group 5, 10.5 mpk IV biw x4 cycles, day 16) was 214 ± 60 mm^3. For the same compound, the Tumor volume (Group 5, 10.5 mpk IV biw x4 cycles, day 18) was 226 ± 59 mm^3, the Tumor volume (Group 5, 10.5 mpk IV biw x4 cycles, day 21) was 381 ± 119 mm^3 and the Tumor volume (Group 5, 10.5 mpk IV biw x4 cycles, day 23) was 439 ± 128 mm^3. It also gave a Tumor volume (Group 5, 10.5 mpk IV biw x4 cycles, day 25) of 562 ± 197 mm^3, a Tumor volume (Group 5, 10.5 mpk IV biw x4 cycles, day 28) of 849 ± 264 mm^3 and an ILS [5] of 76.2%. The MST [5] was 37 days, the “RTV at day 14” value [5] was 3.34 ± 0.97 and the “Tumor Size at day 14” value [5] was 201 ± 67 mm^3. The Tumor volume (Group 7, 7 mpk IV tiw (Mon,Wed,Fri) x4 cycles, day 0) was 55 ± 5 mm^3, the Tumor volume (Group 7, 7 mpk IV tiw (Mon,Wed,Fri) x4 cycles, day 2) was 61 ± 9 mm^3 and the Tumor volume (Group 7, 7 mpk IV tiw (Mon,Wed,Fri) x4 cycles, day 11) was 111 ± 33 mm^3. It also gave a T/C [6] of 18.56%, a TGI [6] of 85.12% and a Tumor volume [6] of 201 ± 67 mm^3. The Tumor volume (Group 7, 7 mpk IV tiw (Mon,Wed,Fri) x4 cycles, day 16) was 238 ± 94 mm^3, the Tumor volume (Group 7, 7 mpk IV tiw (Mon,Wed,Fri) x4 cycles, day 18) was 256 ± 101 mm^3 and the Tumor volume (Group 7, 7 mpk IV tiw (Mon,Wed,Fri) x4 cycles, day 21) was 471 ± 261 mm^3. The ILS [7] was 92.9%, the MST [7] was 40.5 days and the “RTV at day 14” value [7] was 2.32 ± 0.84. The “Tumor Size at day 14” value [7] was 132 ± 46 mm^3, the Tumor volume (Group 9, 7 mpk IV tiw (Mon,Tue,Wed) x4 cycles, day 0) was 56 ± 4 mm^3 and the Tumor volume (Group 9, 7 mpk IV tiw (Mon,Tue,Wed) x4 cycles, day 11) was 79 ± 19 mm^3. It also gave a T/C [8] of 12.89%, a TGI [8] of 92.20% and a Tumor volume [8] of 132 ± 46 mm^3. It also gave a Tumor volume (Group 9, 7 mpk IV tiw (Mon,Tue,Wed) x4 cycles, day 16) of 131 ± 52 mm^3, a Tumor volume (Group 9, 7 mpk IV tiw (Mon,Tue,Wed) x4 cycles, day 18) of 160 ± 65 mm^3 and a Tumor volume (Group 9, 7 mpk IV tiw (Mon,Tue,Wed) x4 cycles, day 21) of 248 ± 104 mm^3. For the same compound, the Tumor volume (Group 9, 7 mpk IV tiw (Mon,Tue,Wed) x4 cycles, day 23) was 252 ± 103 mm^3, the Tumor volume (Group 9, 7 mpk IV tiw (Mon,Tue,Wed) x4 cycles, day 25) was 255 ± 106 mm^3 and the Tumor volume (Group 9, 7 mpk IV tiw (Mon,Tue,Wed) x4 cycles, day 28) was 447 ± 186 mm^3. The Tumor volume (Group 9, 7 mpk IV tiw (Mon,Tue,Wed) x4 cycles, day 30) was 695 ± 300 mm^3.
